“Also recorded” adds a separate entry of the source. Where two headings read alike, the source gives them in different places. Ends that are not written are not given here.
Tests used:
[1] = biological target: T1, SARS-CoV-2 M^pro (Severe acute respiratory syndrome coronavirus 2, UniProt P0DTD1)
[2] = test system: SARS-CoV M^pro; details: cited from earlier work
[3] = biological target: T1, SARS-CoV-2 M^pro; details: pH 7.5
[4] = test system: M^pro dimer; type: binding, SARS-CoV-2; details: pH 6.9
[5] = biological target: T1, SARS-CoV-2 M^pro; details: cited from earlier work
[6] = biological target: T1, SARS-CoV-2 M^pro; experiment: biochemical; type: biochemical; set-up: The main protease (M^pro) of SARS-CoV-2; made in house
[7] = biological target: T1, SARS-CoV-2 M^pro; experiment: biochemical; set-up: The main protease (M^pro) of SARS-CoV-2; made in house; details: for Hill slope: pH 7.5
[8] = biological target: T1, SARS-CoV-2 M^pro; type: biochemical; set-up: The main protease (M^pro) of SARS-CoV-2; made in house
[9] = biological target: T1, SARS-CoV-2 M^pro; type: biochemical; set-up: The main protease (M^pro) of SARS-CoV-2; made in house; details: for depletion of s01 in presence of inhibitor: pH 6.9

| Molecule | turnover (fast/medium/slow) [1] | substrate ion depletion after 12 min ([1]; pH 6.9) | turnover by SARS-CoV M^pro (in words) [2] | turnover / cleavage (in words) [3] | complexes with M^pro dimer after 1 min [4] | substrate ion depletion after 1 min ([1]; pH 6.9) [%] | substrate ion depletion after 6 min ([1]; pH 6.9) [%] | relative catalytic efficiency with SARS-CoV M^pro (in words) [2] | mode of inhibition (in words) [5] | mode of inhibition [6] | IC50 [7] [µM] | Hill slope [7] | IC50 ratio R [6] | IC50 ([6]; IC50 at [S] = 2 µM) [µM] | IC50 ([6]; IC50 at [S] = 10 µM) [µM] | IC50 ([6]; IC50 at [S] = 20 µM) [µM] | IC50 ([6]; IC50 at [S] = 40 µM) [µM] | cleavage products by LCMS [8] | depletion of s01 in presence of inhibitor [9] [%] | M^pro dimer/s01-cleavage product complexes in presence of inhibitor [9] |
| --- | --- | --- | --- | --- | --- | --- | --- | --- | --- | --- | --- | --- | --- | --- | --- | --- | --- | --- | --- | --- |
| REPMLQ↓SADAQ [s07] | slow | below 50% | slow turnover | Slow turnover | only M^pro complexes with intact substrates were observed |  |  |  |  |  |  |  |  |  |  |  |  |  |  |  |
| FYPKLQ↓SSQAW [s11] | fast |  | medium turnover | next preferred substrate for catalysis | complexes of the M^pro dimer and the cleavage products were observed | > 70 | > 90 |  |  |  |  |  |  |  |  |  |  |  |  |  |
| SGVTFQ↓SAVKR [s02] | medium | > 90% | fast turnover | hydrolysed less efficiently than s11 | complexes of the M^pro dimer and the cleavage products were observed |  | > 70 | highest relative efficiencies |  |  |  |  |  |  |  |  |  |  |  |  |
| O=c1c2ccccc2[se]n1-c1ccccc1 [Ebselen] |  |  |  |  |  |  |  |  | reacts multiple times with M^pro; also recorded: complex mode of inhibition | did not support competitive inhibition |  |  |  |  |  |  |  |  |  |  |
| WFTLKQYWQTN-NH2 [p16] |  |  |  |  |  |  |  |  |  | competitive inhibition | 3.76 ± 0.51 | 1.19 ± 0.16 | 4.85 | 4.79 ± 0.08 | 6.66 ± 0.41 | 10.4 ± 0.53 | 23.2 ± 0.42 | not observed | 78 |  |
| LTINWQKYFNT-NH2 [p15] |  |  |  |  |  |  |  |  |  | competitive inhibition | 5.31 ± 1.08 | 1.17 ± 0.16 | 4.56 | 8.26 ± 0.06 | 12 ± 0.34 | 18.83 ± 0.18 | 37.7 ± 2.02 | not observed | 70 |  |
| KYTFWQYSQFY-NH2 [p12] |  |  |  |  |  |  |  |  |  | competitive inhibition | 5.36 ± 2.17 | 1.25 ± 0.06 | 3.61 | 4.53 ± 0.9 | 4.99 ± 0.22 | 7.49 ± 0.04 | 16.3 ± 0.52 | not observed | 95 |  |
| KYLTWQNSQIN-NH2 [p13] |  |  |  |  |  |  |  |  |  | competitive inhibition |  |  |  | 2.97 ± 0.21 | 4.28 ± 0.8 | 6.77 ± 0.46 | 18.1 ± 0.96 | not observed | 91 | the abundance of these complexes was lower than the abundance of M^pro/p13 complexes |
